# Measured values taken from EP0908457B1, “3-(1,2-benzisothiazol- and isoxazol-5-Y1)-2,4(1H,3H)-pyrimidinedione or thione and 3-(1,2-benzisothiazol- and isoxazol-5-y1)-4(3H)-pyrimidinone or thione herbicidal agents” (BASF AKTIENGESELLSCHAFT, priority 1997, dated 1999).
# Columns and labels:
# [1] = tested on: Cyperus iria; assay: Preemergence weed control under flooded paddy conditions, CYPIR (Rice Flatsedge); assay type: in vivo; conditions: preemergence, flooded paddy, rated 3-4 weeks after treatment
# [2] = tested on: Sagittaria pygmaea, L.; assay: Preemergence weed control under flooded paddy conditions, SAGPY (Arrowhead (Pygmaea)); assay type: in vivo; conditions: preemergence, flooded paddy, rated 3-4 weeks after treatment
# [3] = tested on: Echinochloa oryzoides (Ard.) Fritsch.; assay: Preemergence weed control under flooded paddy conditions, ECHORC (Watergrass (Calif.)); assay type: in vivo; conditions: preemergence, flooded paddy, rated 3-4 weeks after treatment
# [4] = tested on: Cyperus serotinus, Rottb.; assay: Preemergence weed control under flooded paddy conditions, CYPSE (Flatsedge); assay type: in vivo; conditions: preemergence, rated 3-4 weeks after treatment
# [5] = tested on: Monochoria vaginalis, Presl.; assay: Preemergence weed control under flooded paddy conditions, MOOVA (Monochoria); assay type: in vivo; conditions: preemergence, flooded paddy, rated 3-4 weeks after treatment
# [6] = tested on: Oryza sativa, (L.) Tebonnet; assay: Rice tolerance to post-transplant applications under flooded paddy conditions (Example 187), ORYSAT (Rice, Tebonnet); conditions: rated 3-4 weeks after treatment
# Note: meaning of each grade not given here.
Structure (SMILES),"herbicidal effect rating, CYPIR ([1]; Rate 0.0620 kg/ha)","herbicidal effect rating, CYPIR ([1]; Rate 0.1250 kg/ha)","herbicidal effect rating, CYPIR ([1]; Rate 0.2500 kg/ha)","herbicidal effect rating, CYPIR ([1]; Rate 0.5000 kg/ha)","herbicidal effect rating, SAGPY ([2]; Rate 0.0620 kg/ha)","herbicidal effect rating, SAGPY ([2]; Rate 0.1250 kg/ha)","herbicidal effect rating, SAGPY ([2]; Rate 0.2500 kg/ha)","herbicidal effect rating, SAGPY ([2]; Rate 0.5000 kg/ha)","herbicidal effect rating, ECHORC ([3]; Rate 0.0620 kg/ha)","herbicidal effect rating, ECHORC ([3]; Rate 0.1250 kg/ha)","herbicidal effect rating, ECHORC ([3]; Rate 0.2500 kg/ha)","herbicidal effect rating, ECHORC ([3]; Rate 0.5000 kg/ha)","herbicidal effect rating, CYPSE ([4]; Rate 0.1250 kg/ha)","herbicidal effect rating, CYPSE ([4]; Rate 0.2500 kg/ha)","herbicidal effect rating, CYPSE ([4]; Rate 0.5000 kg/ha)","herbicidal effect rating, MOOVA ([5]; Rate 0.0620 kg/ha)","herbicidal effect rating, MOOVA ([5]; Rate 0.1250 kg/ha)","herbicidal effect rating, MOOVA ([5]; Rate 0.2500 kg/ha)","herbicidal effect rating, MOOVA ([5]; Rate 0.5000 kg/ha)",herbicidal effect rating ORYSAT ([6]; Rate 0.0620 kg/ha),further results
"Cn1c(C(F)(F)F)cc(=O)n(-c2ccc3snc(-c4ccccc4OCC(N)=O)c3c2)c1=O [Example 548, Acetamide, 2-{o-{5-[3,6-dihydro-3-methyl-2,6-dioxo-4-(trifluoromethyl)-1(2H)-pyrimidinyl]-1,2-benzisothiazol-3-yl}phenoxy}-]",6.0,8.0,9.0,0.0,0.0,2.0,4.0,0.0,3.7,4.9,9.0,6.0,9.0,9.0,9.0,9.0,9.0,9.0,9.0,2.0,"herbicidal effect rating, CYPIR ([1]; Rate 0.0320 kg/ha): 2.0; herbicidal effect rating, SAGPY ([2]; Rate 0.0320 kg/ha): 0.0; herbicidal effect rating, ECHORC ([3]; Rate 0.0320 kg/ha): 2.9; herbicidal effect rating, CYPSE ([4]; Rate 0.0620 kg/ha): 9.0; herbicidal effect rating, MOOVA ([5]; Rate 0.0320 kg/ha): 8.0; herbicidal effect rating ORYSAT ([6]; Rate 0.0320 kg/ha): 3.0; herbicidal effect rating ORYSAT ([6]; Rate 0.1250 kg/ha): 4.0; herbicidal effect rating ORYSAT ([6]; Rate 0.2500 kg/ha): 6.0; herbicidal effect rating ORYSAT ([6]; Rate 0.5000 kg/ha): 4.0"
"Cn1c(C(F)(F)F)cc(=O)n(-c2ccc3snc(-c4ccccc4OCC(=O)C(C)(C)C)c3c2)c1=O [Example 549, 2,4(1H,3H)-Pyrimidinedione, 3-{3-[o-(3,3-dimethyl-2-oxobutoxy)phenyl)-1,2-benzisothiazol-5-yl}-1-methyl-6-(trifluoromethyl)-]",9.0,9.0,9.0,9.0,0.0,4.0,4.0,0.0,3.6,5.1,9.0,9.0,2.0,9.0,9.0,9.0,9.0,9.0,9.0,4.0,"herbicidal effect rating, CYPIR ([1]; Rate 0.0320 kg/ha): 7.0; herbicidal effect rating, SAGPY ([2]; Rate 0.0320 kg/ha): 0.0; herbicidal effect rating, ECHORC ([3]; Rate 0.0320 kg/ha): 3.0; herbicidal effect rating, CYPSE ([4]; Rate 0.0320 kg/ha): 0.0; herbicidal effect rating, CYPSE ([4]; Rate 0.0620 kg/ha): 0.0; herbicidal effect rating, MOOVA ([5]; Rate 0.0320 kg/ha): 9.0; herbicidal effect rating ORYSAT ([6]; Rate 0.0320 kg/ha): 4.0; herbicidal effect rating ORYSAT ([6]; Rate 0.1250 kg/ha): 4.0; herbicidal effect rating ORYSAT ([6]; Rate 0.2500 kg/ha): 4.0; herbicidal effect rating ORYSAT ([6]; Rate 0.5000 kg/ha): 2.0"
"Cc1ccc(C(=O)C(C)Oc2ccccc2-c2nsc3ccc(-n4c(=O)cc(C(F)(F)F)n(C)c4=O)cc23)cc1C (stereo not shown) [Example 550, 2,4(1H,3H)-Pyrimidinedione, 3-{-3-{o-[1-(3,4-dimethylbenzoyl)ethoxy]phenyl}-1,2-benzisothiazol-5-yl]-1-methyl-6-(trifluoromethyl)-]",8.0,8.0,7.0,5.0,0.0,0.0,0.0,0.0,5.9,5.9,9.0,9.0,0.0,0.0,9.0,9.0,9.0,9.0,9.0,0.0,"herbicidal effect rating, CYPIR ([1]; Rate 0.0320 kg/ha): 2.0; herbicidal effect rating, SAGPY ([2]; Rate 0.0320 kg/ha): 0.0; herbicidal effect rating, ECHORC ([3]; Rate 0.0320 kg/ha): 4.7; herbicidal effect rating, CYPSE ([4]; Rate 0.0320 kg/ha): 0.0; herbicidal effect rating, CYPSE ([4]; Rate 0.0620 kg/ha): 0.0; herbicidal effect rating, MOOVA ([5]; Rate 0.0320 kg/ha): 9.0; herbicidal effect rating ORYSAT ([6]; Rate 0.0320 kg/ha): 0.0; herbicidal effect rating ORYSAT ([6]; Rate 0.1250 kg/ha): 0.0; herbicidal effect rating ORYSAT ([6]; Rate 0.2500 kg/ha): 0.0; herbicidal effect rating ORYSAT ([6]; Rate 0.5000 kg/ha): 0.0"
"CC(Oc1ccccc1-c1nsc2ccc(-n3c(=O)cc(C(F)(F)F)n(C)c3=O)cc12)C(=O)N(C)C (stereo not shown) [Example 551, Propionamide, 2-{o-{5-[3,6-dihydro-3-methyl-2,6-dioxo-4-(trifluoromethyl)-1(2H)-pyrimidinyl]-1,2-benzisothiazol-3-yl}phenoxy}-N,N-dimethyl-]",0.0,0.0,2.0,9.0,0.0,0.0,0.0,2.0,4.0,7.0,7.0,9.0,0.0,0.0,0.0,0.0,9.0,9.0,9.0,0.0,"herbicidal effect rating, CYPSE ([4]; Rate 0.0620 kg/ha): 0.0; herbicidal effect rating ORYSAT ([6]; Rate 0.1250 kg/ha): 3.0; herbicidal effect rating ORYSAT ([6]; Rate 0.2500 kg/ha): 3.0; herbicidal effect rating ORYSAT ([6]; Rate 0.5000 kg/ha): 4.0"
"CCCS(=O)(=O)NC(=O)COc1ccc(C)cc1-c1nsc2ccc(-n3c(=O)cc(C(F)(F)F)n(C)c3=O)cc12 [Example 552, Acetamide, 2-{{2-{5-[3,6-dihydro-3-methyl-2,6-dioxo-4-(trifluoromethyl)-1(2H)-pyrimidinyl]-1,2-benzisothiazol-3-yl}-p-tolyl}oxy}-N-(propylsulfonyl)-]",8.0,7.0,9.0,9.0,0.0,0.0,0.0,5.0,3.7,4.7,9.0,9.0,4.0,9.0,9.0,8.0,9.0,9.0,9.0,6.0,"herbicidal effect rating, CYPIR ([1]; Rate 0.0320 kg/ha): 6.0; herbicidal effect rating, SAGPY ([2]; Rate 0.0320 kg/ha): 0.0; herbicidal effect rating, ECHORC ([3]; Rate 0.0320 kg/ha): 2.6; herbicidal effect rating, CYPSE ([4]; Rate 0.0320 kg/ha): 0.0; herbicidal effect rating, MOOVA ([5]; Rate 0.0320 kg/ha): 6.0; herbicidal effect rating ORYSAT ([6]; Rate 0.0320 kg/ha): 4.0; herbicidal effect rating ORYSAT ([6]; Rate 0.1250 kg/ha): 6.0; herbicidal effect rating ORYSAT ([6]; Rate 0.2500 kg/ha): 7.0; herbicidal effect rating ORYSAT ([6]; Rate 0.5000 kg/ha): 4.0"
